Here are results for six compounds from US6248901A, “Heterocyclic vinyl ethers” (Hoffman-La Roche Inc., priority 1997, dated 2001).

One may read the Ki as the dissociation constant of the complex between target and ligand, obtained from inhibition or displacement.

The target of the assay is rat mGluR2 receptor (Rattus norvegicus, UniProt P31421). As to the kind of experiment: GTP γ^35 S test for affinity to group II mGluR (antagonism of 1S,3R-ACPD effect, membranes with rat mGluR2). The class given is biochemical. How it is done: The binding of the compounds of formula I in accordance with the invention to group II metabotropic glutamate receptors was determined in vitro. The preparations were tested in accordance with the test given hereinafter:
The GTP γ^35 S test was used to determine the affinity of a compound to the group II mGluR. Membranes which adhere to the rat mGluR2 receptor were used. These were stimulated with 10 μM 1S,3R-ACPD.
The Ki values of the compounds to be tested are given. The Ki value is defined by the following formula [formula]

Sequence of rat mGluR2 receptor (P31421 19-872): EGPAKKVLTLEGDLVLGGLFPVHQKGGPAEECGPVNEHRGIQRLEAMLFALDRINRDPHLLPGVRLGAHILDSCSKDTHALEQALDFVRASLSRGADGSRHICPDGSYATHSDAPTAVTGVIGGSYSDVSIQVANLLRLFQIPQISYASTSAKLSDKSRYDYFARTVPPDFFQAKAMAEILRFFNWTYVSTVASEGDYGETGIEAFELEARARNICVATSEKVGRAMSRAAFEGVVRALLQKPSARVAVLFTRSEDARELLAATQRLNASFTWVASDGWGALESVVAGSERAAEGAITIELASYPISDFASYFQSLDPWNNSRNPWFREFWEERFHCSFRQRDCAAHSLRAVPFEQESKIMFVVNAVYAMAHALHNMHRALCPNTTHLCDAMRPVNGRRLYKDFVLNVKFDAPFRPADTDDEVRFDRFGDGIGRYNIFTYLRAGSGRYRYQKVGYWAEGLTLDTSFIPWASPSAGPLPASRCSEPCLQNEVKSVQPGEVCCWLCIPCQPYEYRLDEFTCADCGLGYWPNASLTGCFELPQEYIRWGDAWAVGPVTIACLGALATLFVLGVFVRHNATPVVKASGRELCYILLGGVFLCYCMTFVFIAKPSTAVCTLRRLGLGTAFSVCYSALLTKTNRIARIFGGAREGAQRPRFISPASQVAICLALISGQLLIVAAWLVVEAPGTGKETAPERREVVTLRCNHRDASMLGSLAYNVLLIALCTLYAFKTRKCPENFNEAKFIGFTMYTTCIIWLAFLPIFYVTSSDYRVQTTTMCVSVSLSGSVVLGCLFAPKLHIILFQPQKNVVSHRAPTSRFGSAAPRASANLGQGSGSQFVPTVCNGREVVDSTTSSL

Take `CC(C)OC(=Cn1cncn1)c1c(Cl)cc(Cl)cc1Cl` [D, 1-[2-(2,4,6-Trichloro-phenyl)-2-isopropoxy-vinyl]-1H-[1,2,4]triazole]: the inhibition constant Ki stood at 2700 nM.
The compound `CC(C)OC(=Cn1cncn1)c1ccc(Cl)cc1Cl` [A, 1-[2-(2,4-Dichloro-phenyl)-2-isopropoxy-vinyl]-1H-[1,2,4]triazole] gave an inhibition constant Ki of 1170 nM.
Regarding `CCCCOC(=Cn1cncn1)c1ccc(Cl)cc1Cl` [C, 1-[-2-(2,4-Dichloro-phenyl)-2-butoxy-2-vinyl]-1H-[1,2,4]triazole], the Ki worked out at 1400 nM.
Compound `CCCCOC(=Cn1cncn1)c1ccc(Br)cc1` [F, 1-[2-(4-Bromo-phenyl)-2-butoxy-vinyl]-1H-[1,2,4]triazole] had an inhibitory constant (Ki) of 660 nM. This Ki lies about 2.1-fold lower than the previous one.
The compound `COC(=Cn1cncn1)c1ccc(Cl)cc1Cl` [E, 1-[2-(2,4-Dichloro-phenyl)-2-methoxy-vinyl]-1H-[1,2,4]triazole] came in with an inhibition constant (Ki) of 11000 nM.
In the case of `CC(C)COC(=Cn1cncn1)c1ccc(Cl)cc1Cl` [B, 1-[2-(2,4-Dichloro-phenyl)-2-isobutoxy-vinyl]-1H-[1,2,4]triazole], the affinity corresponds to a Ki of 640 nM.
